In US20200131156A1, “ARYLSULFONYLPYROLECARBOXAMIDE DERIVATIVES AS Kv3 POTASSIUM CHANNEL ACTIVATORS” (H. Lundbeck A/S, priority 2018, published 2020):

Target: T1, hKv3.1b (Homo sapiens, UniProt P48547)
T1 construct: expressed in transfected cells
T1 sequence (P48547 1-585 isoform P48547-2): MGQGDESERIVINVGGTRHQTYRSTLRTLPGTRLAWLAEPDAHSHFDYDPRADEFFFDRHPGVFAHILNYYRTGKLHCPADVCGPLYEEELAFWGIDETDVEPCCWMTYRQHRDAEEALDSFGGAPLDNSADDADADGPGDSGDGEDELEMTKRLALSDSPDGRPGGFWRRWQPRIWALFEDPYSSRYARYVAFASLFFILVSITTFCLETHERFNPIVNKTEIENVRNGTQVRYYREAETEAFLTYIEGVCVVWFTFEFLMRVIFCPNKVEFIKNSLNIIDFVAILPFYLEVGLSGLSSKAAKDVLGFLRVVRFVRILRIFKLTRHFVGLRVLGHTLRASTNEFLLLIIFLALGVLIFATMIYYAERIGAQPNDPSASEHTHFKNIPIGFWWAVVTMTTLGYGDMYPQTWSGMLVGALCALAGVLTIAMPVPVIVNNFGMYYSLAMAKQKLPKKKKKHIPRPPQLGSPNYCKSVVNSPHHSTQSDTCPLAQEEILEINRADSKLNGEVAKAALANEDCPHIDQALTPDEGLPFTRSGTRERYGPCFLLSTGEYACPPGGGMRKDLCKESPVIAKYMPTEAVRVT
Assay: Automated patch clamp (QPatch-16x) on HEK-293 cells stably expressing hKv3.1b
Format: cell-based
Settings: for ECdelta5 mV: concentration needed to shift the activation threshold 5 mV; for Threshold Shift: maximum absolute hyperpolarizing shift of activation threshold at tested concentrations 0.37-30 μM
Procedure: HEK-293 cells stably expressing hKv3.1b were used for the experiments. Cells were cultured in DMEM medium supplemented with 10% Fetal Bovine Serum, 100 ug/mL Geneticidin and 100 u/mL Penicillin/Streptomycin (all from Gibco). Cells were grown to 80-90% confluency at 37° C. and 5% CO2. On the day of the experiment the cells were detached from the tissue culture flasks by Detachin, resuspended in serum free medium containing 25 mM HEPES and transferred to the cell hotel of the QPatch. The cells were used for experiments 0-5 hours after detachment.
Patch-clamp recordings were performed using the automated recording system QPatch-16x (Sophion Bioscience, Denmark). Cells were centrifuged, SFM removed and the cells were resuspended in extracellular buffer containing (in mM): 145 NaCl, 4 KCl, 1 MgCl2, 2 CaCl2, 10 HEPES and 10 glucose (added fresh on the day of experiment); pH 7.4 adjusted with NaOH, 305 mOsm adjusted with sucrose.
Single cell whole-cell recordings were carried out using an intracellular solution containing (in mM): 120 KCl, 32.25/10 KOH/EGTA, 5.374 CaCl2, 1.75 MgCl2, 10 HEPES, 4 Na2ATP (added fresh on the day), pH 7.2 adjusted with KOH, […] adjusted with sucrose. Cell membrane potentials were held at −80 mV and currents were evoked by voltage steps (200 ms duration) from −70 mV to +10 mV (in 10 mV increments). Vehicle (0.33% DMSO) or increasing concentration of compound (I) were applied and the voltage protocol was run 3 times (resulting in 3 min cpd incubation time). Five increasing concentrations of compound (I) were applied to each cell.
Leak subtraction protocol was applied at −33% of the sweep amplitude, and serial resistance values were constantly monitored.
Any cell where serial resistance exceeded 25 MOhm, membrane resistance less than 200 MOhm or current size at −10 mV less than 200 pA was eliminated from the subsequent analysis.
Data analysis was performed using Sophion's QPatch assay software in combination with Microsoft Excel™ (Redmond, Wash., USA). Current voltage relationships were plotted from the peak current at the individual voltage steps normalized to the vehicle addition at 10 mV. The voltage threshold for channel activation was defined as 5% activation of the peak current at 10 mV in presence of vehicle. The activity of the compounds was described as the ability to shift this current voltage relationship to more hyperpolarized potentials and is given as the maximum absolute shift possible at the tested concentrations (0.37, 1.11, 3.33, 10, 30 μM). Concentration response curves were plotted from the threshold shift at the individual concentrations and were fitted excel fit model 205 sigmoidal dose-response model (fit=A+((B−A)/1+((C/x)^D)))), where A is the minimum value, B the maximum value, C the EC50 value and D the slope of the curve. The concentration needed to shift the threshold 5 mV was readout from this curve (ECdelta5 mV).

Structure (SMILES)	ECdelta5 mV	Threshold Shift
Cc1ccc(S(=O)(=O)n2ccc(C(=O)NCc3cncnc3)c2)cc1 [Compound 58, 1-(4-methylbenzene-1-sulfonyl)-N-[(pyrimidin-5-yl)methyl]-1H-pyrrole-3-carboxamide]	2200 nM	22 mV
COc1ccc(S(=O)(=O)n2ccc(C(=O)NCc3cnc(C)cn3)c2)cc1 [Compound 7, 1-(4-methoxyphenyl)sulfonyl-N-[(5-methylpyrazin-2-yl)methyl]pyrrole-3-carboxamide]	1300 nM	33 mV
Cc1cnc(CNC(=O)c2ccn(S(=O)(=O)c3ccccc3C)c2)cn1 [Compound 28, N-[(5-methylpyrazin-2-yl)methyl]-1-(o-tolylsulfonyl) pyrrole-3-carboxamide]	1500 nM	27 mV
Cc1cccc(S(=O)(=O)n2ccc(C(=O)NCc3ccn(C)n3)c2)c1 [Compound 60, 1-(3-methylbenzene-1-sulfonyl)-N-[(1-methyl-1H-pyrazol-3-yl)methyl]-1H-pyrrole-3-carboxamide]	2200 nM	16 mV
Cc1cnc(CNC(=O)c2ccn(S(=O)(=O)c3ccc(F)cc3)c2)cn1 [Compound 6, 1-(4-fluorophenyl)sulfonyl-N-[(5-methylpyrazin-2-yl)methyl]pyrrole-3-carboxamide]	2300 nM	24 mV
Cc1ccc(S(=O)(=O)n2ccc(C(=O)NCc3cnccn3)c2)cc1 [Compound 29, 1-(p-tolylsulfonyl)-N-(pyrazin-2-ylmethyl) pyrrole-3-carboxamide]	1300 nM	31 mV
Cc1ccc(S(=O)(=O)n2ccc(C(=O)NCc3cocn3)c2)cc1 [Compound 54, 1-(4-methylbenzene-1-sulfonyl)-N-[(1,3-oxazol-4-yl)methyl]-1H-pyrrole-3-carboxamide]	2000 nM	15 mV
Cc1ccc(S(=O)(=O)n2ccc(C(=O)NCc3cnc(C)cn3)c2F)cc1 [Compound 88, 2-fluoro-1-(4-methylbenzene-1-sulfonyl)-N-[(5-methylpyrazin-2-yl)methyl]-1H-pyrrole-3-carboxamide]	2000 nM	23 mV
Cc1ccc(S(=O)(=O)n2cc(C(=O)NCc3cnc(C)cn3)cc2F)cc1 [Compound 87, 5-fluoro-1-(4-methylbenzene-1-sulfonyl)-N-[(5-methylpyrazin-2-yl)methyl]-1H-pyrrole-3-carboxamide]	4000 nM	15 mV
Cc1ccc(S(=O)(=O)n2ccc(C(=O)NCc3ccc(C)nn3)c2)cc1 [Compound 3, N-[(6-methylpyridazin-3-yl)methyl]-1-(p-tolylsulfonyl)pyrrole-3-carboxamide]	1100 nM	25 mV
Cc1cnc(CNC(=O)c2ccn(S(=O)(=O)c3ccc4c(c3)CCO4)c2)cn1 [Compound 102, 1-(2,3-dihydrobenzofuran-5-ylsulfonyl)-N-[(5-methylpyrazin-2-yl)methyl]pyrrole-3-carboxamide]	1400 nM	32 mV
Cc1ccc(S(=O)(=O)n2ccc(C(=O)NCc3ccccn3)c2)cc1 [Compound 9, 1-(p-tolylsulfonyl)-N-(2-pyridylmethyl) pyrrole-3-carboxamide]	2400 nM	15 mV
Cc1ccc(S(=O)(=O)n2ccc(C(=O)NCc3cnc(Cl)cn3)c2)cc1 [Compound 89, N-[(5-chloropyrazin-2-yl)methyl]-1-(4-methylbenzene-1-sulfonyl)-1H-pyrrole-3-carboxamide]	660 nM	23 mV
CNc1cnc(CNC(=O)c2ccn(S(=O)(=O)c3ccc(OC(F)F)cc3)c2)cn1 [Compound 107, 1-[4-(difluoromethoxy)benzene-1-sulfonyl]-N-{[5-(methylamino)pyrazin-2-yl]methyl}-1H-pyrrole-3-carboxamide]	1800 nM	36 mV
